In US8383608B2, “Imidazolidine compounds as androgen receptor modulators” (Dart Therapeutics LLC, priority 2008, dated 2013):

Assays:
[1] = molecular target: T1, human androgen receptor (hAR) (Homo sapiens, UniProt P10275); experiment: Functional response (transactivation) test in HALP2 cells (HeLa stably expressing hAR and ARE-luciferase reporter); assay type: cell-based; details: HALP2 cells; for Emax: HeLa, maximal activation by the compound compared with DHT alone (100%), read-out: % effect relative to DHT (100%); for EC50: agonism: concentration inducing 50% of the maximum agonistic effect of the tested compound, 24 hours, read-out: EC50
T1 construct: expressed in transfected cells
T1 sequence (P10275 1-920): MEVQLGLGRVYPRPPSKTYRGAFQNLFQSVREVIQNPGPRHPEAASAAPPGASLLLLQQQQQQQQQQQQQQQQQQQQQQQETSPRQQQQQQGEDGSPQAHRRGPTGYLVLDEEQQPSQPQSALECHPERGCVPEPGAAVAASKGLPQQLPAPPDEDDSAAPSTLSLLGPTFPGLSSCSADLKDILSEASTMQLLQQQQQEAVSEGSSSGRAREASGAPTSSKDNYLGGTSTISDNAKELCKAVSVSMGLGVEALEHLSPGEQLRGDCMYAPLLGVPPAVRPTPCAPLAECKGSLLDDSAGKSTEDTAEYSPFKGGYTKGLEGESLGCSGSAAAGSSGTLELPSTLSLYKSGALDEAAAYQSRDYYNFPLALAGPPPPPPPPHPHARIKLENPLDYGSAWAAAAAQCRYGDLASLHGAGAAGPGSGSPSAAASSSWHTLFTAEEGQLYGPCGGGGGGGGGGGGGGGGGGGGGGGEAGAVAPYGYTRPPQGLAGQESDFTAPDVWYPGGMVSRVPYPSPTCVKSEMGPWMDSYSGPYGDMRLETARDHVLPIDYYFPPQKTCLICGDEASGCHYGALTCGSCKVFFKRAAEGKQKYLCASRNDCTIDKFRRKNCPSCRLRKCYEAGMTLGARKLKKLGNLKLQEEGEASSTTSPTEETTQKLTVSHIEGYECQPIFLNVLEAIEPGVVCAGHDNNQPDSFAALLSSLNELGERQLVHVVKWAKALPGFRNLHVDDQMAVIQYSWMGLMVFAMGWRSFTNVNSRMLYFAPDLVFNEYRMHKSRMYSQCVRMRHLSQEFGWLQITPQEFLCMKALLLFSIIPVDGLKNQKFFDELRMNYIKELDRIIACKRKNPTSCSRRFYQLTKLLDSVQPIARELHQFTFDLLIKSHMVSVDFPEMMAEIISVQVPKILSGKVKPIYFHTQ

[2] = Determination of absolute bioavailability (restricted PK profile, oral and intravenous); assay type: in vivo; details: male, Sprague-Dawley, rat, plasma, po, 10 mg/kg, absolute bioavailability (F), male Sprague Dawley rats, oral 10 mg/kg AUC(0-6 h) vs intravenous 3 mg/kg AUC(0-3 h); read-out: Bioavailability
Protocol: To screen rapidly imidazolidines derivatives based on their absolute bioavailabity, restricted pharmacokinetic profile with only fours sampling time points after oral and intravenous route is investigated in Sprague Dawley rats as follows: each test compound is dosed orally (10 mg/kg) and intravenously (3 mg/kg) to groups of 3 male Sprague Dawley rats. Oral doses are administered as solution in EtOH/PEG400/H2O (1/79/20; v/v) by esophageal gavage (2 mg/mL; 5 mL/kg) and intravenous dose is given as solution in DMSO/PEG400/H2O (1/65/34; v/v) as a bolus in the tail vein (3 mg/mL; 1 mL/kg). Before oral dosing, animals are deprived of food (water ad libitum) for at least 16 hours before the start of the study and 6 hours after administration.
Blood is collected at the retro-orbital sinus into polypropylene tubes (Li-heparinate) at +4° C. at the following sampling-times: 0.083, 0.25, 1 and 3 h after intravenous injection and 0.25, 1, 3 and 6 hours after oral dosing. Three (3) animals are sampled per time-point; each animal being sampled four times. After centrifugation at 5000 rpm for 10 min at +4° C., plasma is collected into polypropylene tubes and kept frozen at −20° C. pending assays. Plasma samples are assayed by a LC-MS/MS method with a lower limit of quantification of 1 to 10 ng/mL depending on the compound (volume of plasma: 100 μL).
A LC-MS/MS method for quantification in heparinized plasma was developed for each test compound. Sample preparation consists of a precipitation of plasma proteins with methanol and filtration by centrifugation of supernatant on Captiva deep-well 96 0.2 μm filter plates. Water was added to methanol supernatant phase prior to analysis by liquid chromatography (Pursuit 5 C18 20×2.0 mm VARIAN, 2 μL loop, gradient Water/Methanol (90/10 to 0/100) over 1.7 min) with turboionspray tandem mass spectrometry (API4000) in negative mode using multiple reaction monitoring. The method includes 8 standard and 3 quality control levels with lower limit of quantification corresponding to first standard level.
Exposures are determined using a non compartmental model (WinNonLin 2.1) and the absolute bioavailability (F) is calculated as follows: [AUC(0-6 h) oral*3 mg/kg]/AUC(0-3 h) IV 10 mg/kg] and expressed in percentage.

With `CN1C(=O)N(c2ccc(C#N)c(C(F)(F)F)c2)C(=O)C1(CO)c1ccc(Cl)cc1` (stereo not drawn) [Example 7, 4-[4-(4-Chlorophenyl)-2,5-dioxo-4-hydroxymethyl-3-methyl-imidazolidin-1-yl)-2-trifluoromethylbenzonitrile] the Emax [1] was 21 to 40%, the EC50 [1] was 101 to 500 nM and the bioavailability [2] was > 90%.
With `CN1C(=O)N(c2ccc(C#N)c(C(F)(F)F)c2)C(=O)[C@@]1(CO)c1ccccc1` [Example 10, (S)-4-[2,5-Dioxo-4-(hydroxymethyl)-3-methyl-4-phenylimidazolidin-1-yl]-2-trifluoromethylbenzonitrile] the Emax [1] was 21 to 40%, the EC50 [1] was 11 to 100 nM and the bioavailability [2] was > 90%.
Compound `CCN1C(=O)N(c2ccc(C#N)c(C(F)(F)F)c2)C(=O)C1(CO)c1ccccc1` (stereo not drawn) [Example 12, 4-[2,5-Dioxo-3-ethyl-4-(hydroxymethyl)-4-phenylimidazolidin-1-yl]-2-trifluoromethylbenzonitrile] has an Emax [1] of 21 to 40%, an EC50 [1] of 0.01 to 10 nM and a bioavailability [2] of 50 to 90%.
